By Kd is commonly meant the free concentration of one partner at which half of the binding sites on the other are occupied at equilibrium, for simple one-to-one binding. Low values mean tighter binding, high ones weaker binding.

Structures are written as SMILES. Bounds are passed on as bounds.

Experimental findings from patent US9938261B2, “Heterocyclic compounds and methods of use thereof” (AMBIT BIOSCIENCES CORPORATION, priority 2011, dated 2018) are described below.

Test [1] has as its target kinase panel containing either 386 or 392 distinct kinases. The test is described as follows: Kinase selectivity score S10 from competition binding panel. The note with it: 10 μM, panel of 386 or 392 distinct kinases. The method, boiled down: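 S10 is the number of kinases with percent-of-control under 10, divided by all distinct wild-type kinases tested, from a single 10 μM concentration. Binding measured by qPCR of kinase recovered from ligand-coated beads after 1 h equilibrium at room temperature; kinases were phage fusions or DNA-tagged HEK-293 products.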

Another test addresses T1, PDGFRβ (Homo sapiens, UniProt P09619).
T1 construct: made in house
The test is described as follows: Competition binding assay, PDGFRβ Kd. The note with it: competition binding. The method, boiled down:
(§1)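 Kinases, either T7 phage fusions or HEK-293-expressed and DNA-tagged, competed with test compounds for immobilized biotinylated affinity ligand on streptavidin beads in binding buffer (20% SeaBlock, 0.17×PBS, 0.05% Tween 20, 6 mM DTT). After 1 hour at room temperature, bead-bound kinase was eluted and quantified by qPCR; Kd from eleven-point threefold dilutions.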

A further test deals with T2, FLT3 (Homo sapiens, UniProt P36888).
T2 construct: made in house
T2 sequence (P36888 27-993): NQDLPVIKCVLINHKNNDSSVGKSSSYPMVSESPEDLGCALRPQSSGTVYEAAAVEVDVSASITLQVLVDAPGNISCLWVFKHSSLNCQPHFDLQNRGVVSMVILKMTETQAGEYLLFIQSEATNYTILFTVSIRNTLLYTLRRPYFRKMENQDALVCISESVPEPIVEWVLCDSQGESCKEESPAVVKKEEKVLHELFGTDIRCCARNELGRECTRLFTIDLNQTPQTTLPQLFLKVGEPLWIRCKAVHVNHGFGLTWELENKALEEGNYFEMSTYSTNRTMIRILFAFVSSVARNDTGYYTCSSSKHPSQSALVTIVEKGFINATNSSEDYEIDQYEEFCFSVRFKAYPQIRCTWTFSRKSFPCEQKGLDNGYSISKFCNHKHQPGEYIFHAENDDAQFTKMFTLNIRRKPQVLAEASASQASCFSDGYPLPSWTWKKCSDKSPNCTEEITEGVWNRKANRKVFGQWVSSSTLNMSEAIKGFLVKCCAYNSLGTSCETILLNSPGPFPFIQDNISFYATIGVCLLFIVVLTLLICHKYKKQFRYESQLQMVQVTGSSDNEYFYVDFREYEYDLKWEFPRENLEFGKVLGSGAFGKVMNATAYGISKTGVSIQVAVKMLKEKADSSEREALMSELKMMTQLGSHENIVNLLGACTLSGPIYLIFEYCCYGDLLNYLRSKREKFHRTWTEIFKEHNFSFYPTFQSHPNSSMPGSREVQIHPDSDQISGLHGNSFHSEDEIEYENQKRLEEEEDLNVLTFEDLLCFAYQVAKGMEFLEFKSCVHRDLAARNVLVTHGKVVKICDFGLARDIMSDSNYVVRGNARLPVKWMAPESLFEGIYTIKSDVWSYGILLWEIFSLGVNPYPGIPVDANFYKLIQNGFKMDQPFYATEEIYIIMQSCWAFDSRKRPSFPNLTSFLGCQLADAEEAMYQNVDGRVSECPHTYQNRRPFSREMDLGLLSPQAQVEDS
The test is described as follows: Competition binding assay, FLT3 Kd. The note with it: competition binding. The method, boiled down: as §1

T1 sequence (P09619 33-1106): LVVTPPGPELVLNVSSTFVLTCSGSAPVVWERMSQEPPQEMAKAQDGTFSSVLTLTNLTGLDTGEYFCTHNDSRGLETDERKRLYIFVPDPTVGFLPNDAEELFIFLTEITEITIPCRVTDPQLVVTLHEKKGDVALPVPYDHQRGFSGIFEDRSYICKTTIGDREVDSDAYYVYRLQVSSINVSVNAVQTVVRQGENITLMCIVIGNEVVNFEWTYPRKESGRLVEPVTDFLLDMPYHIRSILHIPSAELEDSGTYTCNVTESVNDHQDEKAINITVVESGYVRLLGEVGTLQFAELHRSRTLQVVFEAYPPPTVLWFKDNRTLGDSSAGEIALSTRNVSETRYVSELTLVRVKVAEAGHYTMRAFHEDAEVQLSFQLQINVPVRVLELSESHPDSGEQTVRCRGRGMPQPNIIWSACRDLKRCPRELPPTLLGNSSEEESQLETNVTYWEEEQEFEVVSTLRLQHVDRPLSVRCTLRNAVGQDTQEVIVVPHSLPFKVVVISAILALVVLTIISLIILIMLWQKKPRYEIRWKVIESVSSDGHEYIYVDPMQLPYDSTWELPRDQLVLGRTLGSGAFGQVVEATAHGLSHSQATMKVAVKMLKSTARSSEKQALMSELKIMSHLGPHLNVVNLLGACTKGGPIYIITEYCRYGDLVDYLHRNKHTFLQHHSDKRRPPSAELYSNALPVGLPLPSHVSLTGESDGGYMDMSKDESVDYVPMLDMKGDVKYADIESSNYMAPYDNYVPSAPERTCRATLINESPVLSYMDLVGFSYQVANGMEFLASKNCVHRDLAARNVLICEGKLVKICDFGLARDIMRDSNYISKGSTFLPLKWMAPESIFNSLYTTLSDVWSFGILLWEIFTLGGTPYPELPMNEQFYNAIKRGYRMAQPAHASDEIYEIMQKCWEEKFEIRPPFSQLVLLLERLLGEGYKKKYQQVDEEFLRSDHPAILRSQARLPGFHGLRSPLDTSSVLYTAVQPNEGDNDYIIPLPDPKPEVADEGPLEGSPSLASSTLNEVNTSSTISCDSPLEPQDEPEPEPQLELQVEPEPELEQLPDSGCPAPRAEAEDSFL

With `O[C@H]1CC[C@H](Nc2nc3ccc(Cn4cnc5cc(F)cnc54)cc3s2)CC1` [Example 163, trans-4-((6-((6-fluoro-3H-imidazo[4,5-b]pyridin-3-yl)methyl)benzo[d]thiazol-2-yl)amino)cyclohexanol], in test [1], the “Kinase specificity S(10)” value was “A (A≤0.01)”. Moreover, the Kd is 50 to 500 nM at PDGFRβ and > 5000 nM on FLT3.
